A short description of series [1]: Cytotoxicity against human HeLa cells expressing CD4 and CCR5 assessed as cell viability after 6 days by XTT assay. The class given is cell-based. In general terms: Formazan colour is commonly taken as a measure of viable cells.
Series [2] relates to Human immunodeficiency virus 1. Nature of the series: Antiviral activity against HIV1 JRFL infected in human HeLa cells expressing CD4 and CCR5 after 3 days by luciferase reporter gene assay. The series is classed as functional, organism-based. As to conditions: Human immunodeficiency virus 1, JRFL, 72 h. (Reporter assays use an easily measured gene product as a stand-in for the process of interest.)

A short description of series [3]: Therapeutic index, ratio of CC50 for human HeLa cells expressing CD4 and CCR5 to EC50 for HIV1 JRFL infected in human HeLa cells expressing CD4 and CCR5. The series is classed as cell-based. As to conditions: read-out: Ratio CC50/EC50.
Series [4] is described as follows: Solubility of the compound in amorphous form at pH 6.5. The series is classed as physicochemical. Conditions: buffer.
Series [5] in a line: Clearance in rat at 1 mg/kg, iv. The series is classed as ADME, organism-based. Further details: dose 1 mg/kg, route intravenous. As to conditions: in vivo.
The nature of series [6]: Oral bioavailability in rat at 5 mg/kg. The class given is ADME, organism-based. Conditions: in vivo.
A short description of series [7]: AUC in rat at 5 mg/kg, po. The series is classed as ADME, organism-based. As to conditions: plasma. Further details: dose 5 mg/kg, route oral.

Converted amounts (≈) assume the structure as drawn.

As a reminder, the CC50 is the concentration giving 50% cytotoxicity. The EC50 is the concentration giving half of the maximal effect. Low readings indicate higher potency in that assay, high ones lower potency in that assay. As for `O=C(C(=O)N1CCN(C(=O)c2ccccc2)CC1)c1c[nH]c2c(-c3ccccn3)ncnc12`, in series [1], the CC50 at 144 h worked out at 6 µM. In series [2], this compound returned an EC50 of 0.34 nM. Further, the selectivity ratio in series [3] was above 15000.
As for `O=C(C(=O)N1CCN(C(=O)c2ccccc2)CC1)c1c[nH]c2c(-c3cnccn3)ncnc12`, in series [1], the CC50 at 144 h worked out at 78 µM. The compound also came in with an EC50 in series [2] of 0.25 nM. The selectivity ratio in series [3] was above 15000.
Compound `CN(C)C(=O)c1ccn(-c2ncnc3c(C(=O)C(=O)N4CCN(C(=O)c5ccccc5)CC4)c[nH]c23)n1` returned an EC50 in series [2] of 2 nM.
The solubility is the concentration that dissolves in the medium under given conditions. Take `COc1ccccc1-c1ccn(-c2ncnc3c(C(=O)C(=O)N4CCN(C(=O)c5ccccc5)CC4)c[nH]c23)n1`: the solubility in series [4] amounted to 4 µg/mL (≈ 7.47 µM). In series [2], this compound returned an EC50 of 0.36 nM.
As for `O=C(C(=O)N1CCN(C(=O)c2ccccc2)CC1)c1c[nH]c2c(-c3cc[nH]n3)ncnc12`, in series [1], the CC50 at 144 h was above 300 µM. This compound also gave an EC50 in series [2] of 0.31 nM.
Regarding `O=C(C(=O)N1CCN(C(=O)c2ccccc2)CC1)c1c[nH]c2c(-c3cccnc3)ncnc12`, the CC50 at 144 h in series [1] was above 300 µM. Further, the EC50 in series [2] came out at 1.3 nM.
For `CC(=O)c1ncnc2c(C(=O)C(=O)N3CCN(C(=O)c4ccccc4)CC3)c[nH]c12`, the CC50 at 144 h in series [1] is above 300 µM. In series [2], this compound came in with an EC50 of 18 nM.
`O=C(C(=O)N1CCN(C(=O)c2ccccc2)CC1)c1c[nH]c2c(-c3ccncc3)ncnc12`: the CC50 at 144 h in series [1] was above 300 µM. The EC50 in series [2] was found to be 12 nM.
Consider `CCOc1ncnc2c(C(=O)C(=O)N3CCN(C(=O)c4ccccc4)CC3)c[nH]c12`, for which the CC50 at 144 h in series [1] is above 150 µM. Besides, the midpoint of the response in series [2], the EC50, lay at 12 nM.
In the same order, the values of `CN1CCN(c2ncnc3c(C(=O)C(=O)N4CCN(C(=O)c5ccccc5)CC4)c[nH]c23)CC1` are above 300 µM and above 5000 nM.
In series [4], `O=C(C(=O)N1CCN(C(=O)c2ccccc2)CC1)c1c[nH]c2c(-n3ccc(-c4ccccn4)n3)ncnc12` showed a solubility of 8 µg/mL (≈ 15.8 µM). The EC50 in series [2] is 0.15 nM.
Turning to `O=C(O)c1ccn(-c2ncnc3c(C(=O)C(=O)N4CCN(C(=O)c5ccccc5)CC4)c[nH]c23)n1`, in series [4], the concentration in solution (solubility) came to 1070 µg/mL (≈ 2260 µM). Also, in series [2], the EC50 came out at 0.76 nM.
`Cc1cc(-c2ncnc3c(C(=O)C(=O)N4CCN(C(=O)c5ccccc5)CC4)c[nH]c23)on1`: the CC50 at 144 h in series [1] stood at 177 µM. In series [2], this compound gave an EC50 of 0.88 nM.
For `O=C(C(=O)N1CCN(C(=O)c2ccccc2)CC1)c1c[nH]c2c(Cl)ncnc12`, the CC50 at 144 h in series [1] is above 300 µM. In series [2], this compound gave an EC50 of 11 nM.
In general, clearance refers to the volume of plasma or blood freed of the substance per unit of time. Read a low clearance as a low capacity for elimination. As usually defined, the bioavailability is dose-corrected exposure relative to a reference, in per cent. Lower therefore signals little systemic uptake. As usually defined, the AUC is the area under the concentration-time curve, a measure of exposure. Low values mean low exposure, high ones high exposure. Turning to `Cc1ccn(-c2ncnc3c(C(=O)C(=O)N4CCN(C(=O)c5ccccc5)CC4)c[nH]c23)n1`, in series [5], the clearance stood at 4.8 mL/min/kg. Moreover, in series [4], the solubility was 8 µg/mL (≈ 18 µM). Moreover, in series [1], the CC50 at 144 h is above 300 µM. The bioavailability in series [6] was 45%. The compound also had an AUC in series [7] of 17.8 µM·h. In series [2], this compound registered an EC50 of 0.15 nM.
For `O=C(C(=O)N1CCN(C(=O)c2ccccc2)CC1)c1c[nH]c2c(-n3ccc(-c4ccccc4)n3)ncnc12`, the concentration in solution in series [4] (solubility) was 1 µg/mL (≈ 1.98 µM). In series [2], this compound came in with an EC50 of 0.28 nM.
For the compound `COc1ccc(-c2ccn(-c3ncnc4c(C(=O)C(=O)N5CCN(C(=O)c6ccccc6)CC5)c[nH]c34)n2)cc1`, the concentration in solution in series [4] (solubility) was 1 µg/mL (≈ 1.87 µM). In series [2], this compound came in with an EC50 of 0.24 nM.
For the compound `Cc1cnn(-c2ncnc3c(C(=O)C(=O)N4CCN(C(=O)c5ccccc5)CC4)c[nH]c23)c1`, the CC50 at 144 h in series [1] was above 300 µM. In addition, the midpoint of the response in series [2], the EC50, lay at 1.1 nM.
On the same counts, the results for `O=C(C(=O)N1CCN(C(=O)c2ccccc2)CC1)c1c[nH]c2c(-c3ccnnc3)ncnc12` are above 300 µM and 5.2 nM.
In the same order, the values of `COc1ncnc2c(C(=O)C(=O)N3CCN(C(=O)c4ccccc4)CC3)c[nH]c12` are above 300 µM and 4.1 nM.
Turning to `O=C(C(=O)N1CCN(C(=O)c2ccccc2)CC1)c1c[nH]c2c(-n3cncn3)ncnc12`, in series [5], the clearance turned out to be 35 mL/min/kg. In series [1], the CC50 at 144 h is above 300 µM. For the same compound, the bioavailability in series [6] worked out at 15%. In series [7], this compound gave an AUC of 0.83 µM·h. For the same compound, the response in series [2] was half-maximal at 0.1 nM (EC50).
As for `N#Cc1ncnc2c(C(=O)C(=O)N3CCN(C(=O)c4ccccc4)CC3)c[nH]c12`, in series [1], the CC50 at 144 h is above 300 µM. Also, the response in series [2] was half-maximal at 44 nM (EC50).
In turn, `CNCCCCNC(=O)c1ccn(-c2ncnc3c(C(=O)C(=O)N4CCN(C(=O)c5ccccc5)CC4)c[nH]c23)n1` registered a solubility in series [4] of 1730 µg/mL (≈ 3100 µM). It took 4.8 nM to reach a half-maximal effect in series [2] (EC50).
Turning to `O=C(C(=O)N1CCN(C(=O)c2ccccc2)CC1)c1c[nH]c2c(-c3cncnc3)ncnc12`, in series [1], the cytotoxic concentration (CC50) at 144 h is above 300 µM. In series [2], this compound yielded an EC50 of 2.7 nM.
For the compound `O=C(C(=O)N1CCN(C(=O)c2ccccc2)CC1)c1c[nH]c2c(-n3nccn3)ncnc12`, the CC50 at 144 h in series [1] was above 150 µM. Further, the EC50 in series [2] came to 11 nM.
Consider `O=C(C(=O)N1CCN(C(=O)c2ccccc2)CC1)c1c[nH]c2c(-n3ccc(-c4cccc(C(F)(F)F)c4)n3)ncnc12`, for which, in series [4], the solubility turned out to be 60 µg/mL (≈ 105 µM). The response in series [2] was half-maximal at 0.37 nM (EC50).
The compound `Cc1ncn(-c2ncnc3c(C(=O)C(=O)N4CCN(C(=O)c5ccccc5)CC4)c[nH]c23)n1` had a clearance in series [5] of 7.6 mL/min/kg. The CC50 at 144 h in series [1] is above 150 µM. This compound registered a bioavailability in series [6] of 19%. This compound also showed an area under the curve (AUC) in series [7] of 4.9 µM·h. This compound also yielded an EC50 in series [2] of 0.36 nM.
The compound `O=C(C(=O)N1CCN(C(=O)c2ccccc2)CC1)c1c[nH]c2c(-n3ccc(-c4ccc(F)cc4)n3)ncnc12` had an EC50 in series [2] below 0.16 nM.
